{"source": "patent US20100016367A1", "about": "“BIS-PYRINIDIUM COMPOUNDS” (priority 2006, published 2010)", "experiment_in_all_cases": "In-vitro activity against dermatophytes, MIC", "assay_type_in_all_cases": "cell-based", "key": {"Trichophyton rubrum": {"test_system": "Trichophyton rubrum", "details": "20 isolates"}, "Microsporum gypseum": {"test_system": "Microsporum gypseum", "details": "5 isolates"}, "[1]": {"test_system": "Trichophyton mentagrophytes", "details": "18 isolates"}, "Microsporum canis": {"test_system": "Microsporum canis", "details": "5 isolates"}, "Trichophyton soudanense": {"test_system": "Trichophyton soudanense", "details": "3 isolates"}, "Trichophyton violaceum": {"test_system": "Trichophyton violaceum", "details": "3 isolates"}, "Epidermophyton floccosum": {"test_system": "Epidermophyton floccosum", "details": "5 isolates"}, "Trichophyton tonsurans": {"test_system": "Trichophyton tonsurans", "details": "16 isolates"}, "Microsporum cookie": {"test_system": "Microsporum cookie", "details": "2 isolates"}}, "data": [{"molecule": "CCC(C)n1ncn(-c2ccc(N3CCN(c4ccc(OCC5COC(Cn6cncn6)(c6ccc(Cl)cc6Cl)O5)cc4)CC3)cc2)c1=O", "note": "(stereo not drawn) [ITC, Itraconazole]", "values": [{"measurement": "MIC Range, Trichophyton rubrum", "setting": "Trichophyton rubrum", "result": "0.25 to 4", "unit": "µg/mL"}, {"measurement": "MIC50", "setting": "Trichophyton rubrum; Trichophyton rubrum, MIC at which 50% of the isolates were inhibited", "result": 2, "unit": "µg/mL"}, {"measurement": "MIC90", "setting": "Trichophyton rubrum; Trichophyton rubrum, MIC at which 90% of the isolates were inhibited", "result": 4, "unit": "µg/mL"}, {"measurement": "MIC", "setting": "Trichophyton rubrum; Trichophyton rubrum, read-out: MIC GM (geometric mean of the MICs), Trichophyton rubrum", "result": 1.96, "unit": "µg/mL"}, {"measurement": "MIC Range, Microsporum gypseum", "setting": "Microsporum gypseum", "result": "1 to 8", "unit": "µg/mL"}, {"measurement": "MIC", "setting": "Microsporum gypseum; Nannizzia gypsea, read-out: MIC GM, Microsporum gypseum", "result": 3.68, "unit": "µg/mL"}, {"measurement": "MIC Range, Trichophyton mentagrophytes", "setting": "[1]", "result": "0.125 to 4", "unit": "µg/mL"}, {"measurement": "MIC50", "setting": "[1]; Trichophyton mentagrophytes", "result": 2, "unit": "µg/mL"}, {"measurement": "MIC90", "setting": "[1]; Trichophyton mentagrophytes", "result": 4, "unit": "µg/mL"}, {"measurement": "MIC", "setting": "[1]; Trichophyton mentagrophytes, read-out: MIC GM, Trichophyton mentagrophytes", "result": 1.68, "unit": "µg/mL"}, {"measurement": "MIC Range, Microsporum canis", "setting": "Microsporum canis", "result": "0.25 to 8", "unit": "µg/mL"}, {"measurement": "MIC", "setting": "Microsporum canis; Microsporum canis, read-out: MIC GM, Microsporum canis", "result": 1.23, "unit": "µg/mL"}, {"measurement": "MIC Range, Trichophyton soudanense", "setting": "Trichophyton soudanense", "result": "1 to 4", "unit": "µg/mL"}, {"measurement": "MIC", "setting": "Trichophyton soudanense; Trichophyton soudanense, read-out: MIC GM, Trichophyton soudanense", "result": 3.42, "unit": "µg/mL"}, {"measurement": "MIC Range, Trichophyton violaceum", "setting": "Trichophyton violaceum", "result": "2 to 8", "unit": "µg/mL"}, {"measurement": "MIC", "setting": "Trichophyton violaceum; Trichophyton violaceum, read-out: MIC GM, Trichophyton violaceum", "result": 3.3, "unit": "µg/mL"}, {"measurement": "MIC Range, Epidermophyton floccosum", "setting": "Epidermophyton floccosum", "result": "0.063 to 0.5", "unit": "µg/mL"}, {"measurement": "MIC", "setting": "Epidermophyton floccosum; Epidermophyton floccosum, read-out: MIC GM, Epidermophyton floccosum", "result": 0.226, "unit": "µg/mL"}, {"measurement": "MIC Range, Trichophyton tonsurans", "setting": "Trichophyton tonsurans", "result": "0.25 to 4", "unit": "µg/mL"}, {"measurement": "MIC50", "setting": "Trichophyton tonsurans; Trichophyton tonsurans", "result": 2, "unit": "µg/mL"}, {"measurement": "MIC90", "setting": "Trichophyton tonsurans; Trichophyton tonsurans", "result": 4, "unit": "µg/mL"}, {"measurement": "MIC", "setting": "Trichophyton tonsurans; Trichophyton tonsurans, read-out: MIC GM, Trichophyton tonsurans", "result": 1.65, "unit": "µg/mL"}, {"measurement": "MIC Range, Microsporum cookie", "setting": "Microsporum cookie", "result": "4 to 8", "unit": "µg/mL"}, {"measurement": "MIC", "setting": "Microsporum cookie; Microsporum, read-out: MIC GM, Microsporum cookie", "result": 6, "unit": "µg/mL"}]}]}
